The results in this text go back to patent US20060276537A1, “Use of ladostigil for the treatment of multiple sclerosis” (priority 2005, published 2006).

Assay [1] deals with chronic progressive EAE induced by pMOG35-55 in C57BL/6 mice. The assay is described as follows: MOG-induced chronic progressive EAE in C57BL/6 mice, clinical scoring. The class given is in vivo. The settings on record: GA blocking, dose 250 mg/kg, given with inoculum on day 0. The procedure: MOG (Myelin oligodendrocyte glycoprotein) is a member of the immunoglobulin superfamily expressed exclusively in CNS myelin. It is one of the most encephalitogenic proteins and is widely used to induce EAE in different rodent strains. In C57BL/6 mice, immunization with the MOG peptide pMOG35-55 in CFA induces chronic progressive EAE. Ladostigil was tested in this model in order to assess its ability to inhibit the disease.
EAE was induced by subcutaneous injection of encephalitogenic emulsion at a volume of 0.2 ml/mouse in the right flank. On the day of induction, pertussis toxin was injected intraperitoneally at a volume dose of 0.2 ml/mouse. The injection of the pertussis toxin was repeated after 48 hours. At the end of the experiment, 6-7 brains from control and the ladostigil groups were dissected and frozen at −70° C. for CHE (cholinesterase) determination and 6-7 brains were dissected and frozen for MAO (monoamine oxidase) determination. Before sacrifice, blood for ChE determination was taken on heparine, hemolysed 1/20 in 10 mM cold phosphate buffer pH=6.0 and stored at −70° C. until the assay.
90 female C57Bl/6 mice 8-10 weeks old obtained from Harlan animal breeding center were used in the study. Mice were allocated randomly into 6 groups:
Both compounds were administered by gavage once daily during the whole experiment (30 days) at a volume of 0.2 ml/mouse.
The mice were observed daily from the 10th day post-EAE induction and the EAE clinical signs were scored. The scores were recorded on observation cards according to the grades described in Table 5:
The number of sick animals (animals with a score of ≧1 at any point) in each group was summed.
The incidence of disease and the % activity were calculated as follows: [formula] [formula] [formula]
The maximal scores of all mice in each group were summed.
The mean maximal score and the % activity of the group were calculated as follows: [formula] [formula] [formula]
The individual scores (IMS) of each of the mice during the observation period were summed (score 6 will be counted forward).
The GMS of the group and its % activity were calculated as follows: [formula] [formula] [formula]
Their dates of onset were calculated as day of termination +1.

A short description of assay [2]: Body weight of the EAE mice (Table 7). The class given is in vivo. From the text: These differences were statistically significant (p<0.000, Manova). According to the subsequent Post Hoc comparison (LSD), all the groups were different from the control (Table 7). […] On day 14, four days after the onset of the disease, sick mice lost an average of 2 g of weight. The average mean weight of GA-blocked mice was reduced by only 0.4 g. On day 23 the control group reached the lowest weight, 14.6 g.

The % Inhibition is the share of the control response that was lost under treatment. Take “glatiramer acetate [GA, reference compound]”: in assay [1], the Incidence was 14/15 and the Mortality is given as 0/15. In addition, in assay [1] (vs control group mean score), the “% Inhibition” value was found to be 54.6%. Besides, the “Reduction of average mean weight” value in assay [2] (GA-blocked mice, day 14) is 0.4 g. Further, in assay [2] (day 2 after induction, GA blocking, dose 250 mg/kg), the “Weight of EAE mice” value was 18.6 ± 0.8 g.
